Source: paper PMC12129089, “Peptide stereocomplex cross-links for polymer hydrogels” (Chemical Science, 2025)
Square brackets hold non-standard residues; d marks the D form. Ends that are not written are not given here. Peptide text beside a SMILES is read from it.

Assays:
[1] = Solubility / visual appearance in water, PBS or urea-PBS; assay type: physicochemical
Source text: To attach the peptides to PEG, we selected a thiol-maleimide reaction[43,44] due to its efficiency under mild conditions (Fig. 1a). Therefore, we prepared cysteine-terminated L- and […], or […] and […]8 ^†), for conjugation to maleimide-functionalized 4-arm PEG. […] We note that […] peptides are only partially soluble and form a white dispersion in the 7 M urea 1× PBS solution (Fig. S10 ^†). […] In 1× PBS, while 1.5% (w/v) unconjugated KYFIL forms β-sheets, the conjugates are soluble and we see no evidence of β-sheet formation by infrared (IR) spectroscopy even at 15% ([…] ^†), corresponding to a peptide equivalent concentration of ∼2% (w/v), which exceeds the peptide concentrations in the 1.5% (w/v) formulations of peptide alone. As noted in our previous report on unconjugated KYFIL,[20] we used IR here for secondary structure determination rather than CD because the high peptide concentrations and the presence of salt that promote β-sheet formation also complicate CD spectra acquisition by saturating the detector. […] Moreover, the absorbances are more prominent at higher concentrations (Fig. 2b), signifying the relationship between secondary structure and hydrogel formation.

[2] = target: T1, Proteinase K (Parengyodontium album, UniProt P06873); details: unconjugated KYFIL peptides; cited from earlier work
T1 construct: purchased Sigma-Aldrich
Procedure: Given the potential of peptide stereocomplexes to prolong hydrogel lifetime due to enhanced proteolytic stability, we were interested to learn whether the KYFIL stereocomplex cross-links boost the proteolytic stability of polymeric hydrogels. In our prior study with unconjugated KYFIL stereocomplexes, we incubated l-, 1 : 1 L : D-, and D-KYFIL in Proteinase K, an enzyme that is predicted to cleave L-KYFIL between the Y–F, F–I, and I–L residues.[57] We found more than 90% intact peptide in the 1 : 1 L : D-peptide mixtures after incubation with Proteinase K for 72 h, while only ∼35% L-KYFIL rema ...

T1 sequence (P06873 106-384): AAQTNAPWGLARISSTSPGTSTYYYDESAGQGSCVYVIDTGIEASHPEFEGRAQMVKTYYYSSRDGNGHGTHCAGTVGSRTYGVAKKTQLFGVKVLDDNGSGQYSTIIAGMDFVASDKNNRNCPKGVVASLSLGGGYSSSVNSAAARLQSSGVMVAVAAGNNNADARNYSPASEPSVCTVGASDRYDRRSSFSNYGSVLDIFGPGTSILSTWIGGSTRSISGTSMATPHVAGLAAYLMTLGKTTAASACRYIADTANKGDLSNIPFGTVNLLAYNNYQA

Row | Molecule | solubility in water (in words) [1] | intact peptide after incubation with Proteinase K for 72 h [2] [%]
1 | CC[C@@H](C)[C@@H](NC(=O)[C@@H](Cc1ccccc1)NC(=O)[C@@H](Cc1ccc(O)cc1)NC(=O)[C@H](N)CCCCN)C(=O)N[C@H](CC(C)C)C(=O)N[C@H](CS)C(N)=O [D-KYFILC] (H-[dK][dY][dF][dI][dL][dC]-NH2) | soluble | –
2 | KYFILC-NH2 [L-KYFILC] | soluble | –
3 | L-KYFIL [unconjugated L-peptide KYFIL of the authors' prior study] | – | ~35
